The text below walks through data of ChEMBL document CHEMBL1129037 (J Med Chem, 1996).

T1 sequence (P23977 whole entry): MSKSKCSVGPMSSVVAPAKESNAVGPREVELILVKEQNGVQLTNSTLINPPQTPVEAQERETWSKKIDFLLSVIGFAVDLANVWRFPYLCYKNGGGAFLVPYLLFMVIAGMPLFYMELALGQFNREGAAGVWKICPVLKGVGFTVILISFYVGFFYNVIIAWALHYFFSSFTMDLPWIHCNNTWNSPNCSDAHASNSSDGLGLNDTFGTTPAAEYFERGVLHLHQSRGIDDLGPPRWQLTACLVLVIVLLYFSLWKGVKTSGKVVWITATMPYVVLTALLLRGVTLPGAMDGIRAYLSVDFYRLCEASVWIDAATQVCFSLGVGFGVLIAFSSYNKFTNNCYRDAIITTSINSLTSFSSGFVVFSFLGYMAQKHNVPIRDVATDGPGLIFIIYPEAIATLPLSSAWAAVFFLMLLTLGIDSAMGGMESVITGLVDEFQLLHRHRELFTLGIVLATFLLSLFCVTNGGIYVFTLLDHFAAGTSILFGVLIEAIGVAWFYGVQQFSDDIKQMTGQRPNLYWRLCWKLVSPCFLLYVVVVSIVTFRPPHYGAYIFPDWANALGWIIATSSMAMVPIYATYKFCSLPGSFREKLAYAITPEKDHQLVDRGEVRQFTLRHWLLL
Sequence of Sodium-dependent dopamine transporter (Rattus norvegicus) (P23977 whole entry): as above

One test addresses T1, Sodium-dependent dopamine transporter (Rattus norvegicus, UniProt P23977). Kind of test: Inhibitory activity against [3H]dopamine uptake in rat striatal tissue. The test is classed as functional, tissue-based, Striatum.
The term IC50 denotes the concentration that gives 50% inhibition. A high value points to lower potency. `COC(=O)[C@@H](c1cccc(C)c1)[C@@H]1CCCCN1` gave an IC50 of 100 nM.

`COC(=O)[C@@H](c1cccc(Cl)c1)[C@@H]1CCCCN1` registered an IC50 of 23 nM.

`COC(=O)[C@@H](c1ccc(Br)cc1)[C@@H]1CCCCN1` gave a half-maximal inhibitory concentration (IC50) of 26.3 nM.

In turn, `COC(=O)[C@@H](c1cccc(F)c1)[C@@H]1CCCCN1` registered a half-maximal inhibitory concentration (IC50) of 160 nM.

`COC(=O)C(c1ccccc1OC)C1CCCCN1` (single isomer, unassigned) came in with a concentration for half-maximal inhibition (IC50) of 290000 nM.

With `COC(=O)[C@@H](c1ccc(Cl)cc1)[C@@H]1CCCCN1`, the 50% inhibitory concentration (IC50) came out at 73.8 nM.

As to `COC(=O)[C@@H](c1ccccc1Br)[C@@H]1CCCCN1`, the IC50 came to 3410 nM.

As for `COC(=O)[C@@H](c1cccc(O)c1)[C@@H]1CCCCN1`, the half-inhibitory concentration (IC50) came to 790 nM.

`COC(=O)[C@@H](c1ccc([N+](=O)[O-])cc1)[C@@H]1CCCCN1` came in with a concentration for half-maximal inhibition (IC50) of 1610 nM.

`COC(=O)[C@@H](c1ccc(Cl)c(Cl)c1)[C@@H]1CCCCN1` gave an IC50 of 7 nM.

Molecule `COC(=O)[C@@H](c1ccc(O)cc1)[C@@H]1CCCCN1` registered an IC50 of 340 nM.

In the case of `COC(=O)[C@@H](c1ccccc1F)[C@@H]1CCCCN1`, half-maximal inhibition (IC50) required 2900 nM.

As for `COC(=O)[C@@H](c1ccccc1OC)[C@@H]1CCCCN1`, the IC50 was 81000 nM.

The molecule `COC(=O)[C@@H](c1ccc(I)cc1)[C@@H]1CCCCN1` had an IC50 of 64.5 nM.

`COC(=O)[C@@H](c1cccc(Br)c1)[C@@H]1CCCCN1` registered an IC50 of 12.8 nM.

Take `COC(=O)[C@@H](c1ccccc1Cl)[C@@H]1CCCCN1`: the IC50 came to 2660 nM.

For the molecule `COC(=O)[C@@H](c1cccc(N)c1)[C@@H]1CCCCN1`, half-maximal inhibition (IC50) was put at 578 nM.

For `COC(=O)C(c1cccc(Cl)c1)C1CCCCN1` (single isomer, unassigned), the IC50 was found to be 1540 nM.

Consider `COC(=O)[C@@H](c1ccccc1O)[C@@H]1CCCCN1`, for which the IC50 was determined as 35800 nM.

In turn, `COC(=O)[C@@H](c1ccc(F)cc1)[C@@H]1CCCCN1` registered a concentration for half-maximal inhibition (IC50) of 142 nM.

As for `COC(=O)C(c1ccccc1Cl)C1CCCCN1` (single isomer, unassigned), half-maximal inhibition (IC50) was put at 61000 nM.

As for `COC(=O)[C@@H](c1ccc(OC)c(OC)c1)[C@@H]1CCCCN1`, the concentration for half-maximal inhibition (IC50) was 1760 nM.

Molecule `COC(=O)[C@@H](c1ccc(C)cc1)[C@@H]1CCCCN1` yielded an IC50 of 126 nM.

Regarding `COC(=O)C(c1ccccc1Br)C1CCCCN1` (single isomer, unassigned), the half-maximal inhibitory concentration (IC50) is 59000 nM.

In turn, `COC(=O)[C@@H](c1ccc(N)cc1)[C@@H]1CCCCN1` gave an IC50 of 115 nM.

Another test deals with T1, Sodium-dependent dopamine transporter. Kind of test: Inhibition of [3H]WIN-35428 binding to dopamine transporter using rat striatal tissue. It counts as tissue-based, Striatum.
Take `COC(=O)[C@@H](c1cccc(C)c1)[C@@H]1CCCCN1`: the IC50 is 21.4 nM.

As for `COC(=O)[C@@H](c1cccc(Cl)c1)[C@@H]1CCCCN1`, the IC50 is 5.1 nM.

The molecule `COC(=O)[C@@H](c1ccc(Br)cc1)[C@@H]1CCCCN1` gave a 50% inhibitory concentration (IC50) of 6.9 nM.

In turn, `COC(=O)[C@@H](c1cccc(F)c1)[C@@H]1CCCCN1` came in with an IC50 of 40.5 nM.

`COC(=O)C(c1ccccc1OC)C1CCCCN1` (single isomer, unassigned) yielded an IC50 of 139000 nM.

For the molecule `COC(=O)[C@@H](c1ccc(Cl)cc1)[C@@H]1CCCCN1`, the IC50 came out at 20.6 nM.

Regarding `COC(=O)[C@@H](c1ccccc1Br)[C@@H]1CCCCN1`, the half-maximal inhibitory concentration (IC50) stood at 1870 nM.

With `COC(=O)[C@@H](c1cccc(O)c1)[C@@H]1CCCCN1`, the half-inhibitory concentration (IC50) was found to be 321 nM.

For the molecule `COC(=O)[C@@H](c1ccc([N+](=O)[O-])cc1)[C@@H]1CCCCN1`, the IC50 came to 494 nM.

Molecule `COC(=O)[C@@H](c1ccc(Cl)c(Cl)c1)[C@@H]1CCCCN1` came in with an IC50 of 5.3 nM.

With `COC(=O)[C@@H](c1ccc(O)cc1)[C@@H]1CCCCN1`, the concentration for half-maximal inhibition (IC50) stood at 98 nM.

Molecule `COC(=O)[C@@H](c1ccccc1F)[C@@H]1CCCCN1` had an IC50 of 1420 nM.

Turning to `COC(=O)[C@@H](c1ccc(I)cc1)[C@@H]1CCCCN1`, the half-inhibitory concentration (IC50) worked out at 14 nM.

`COC(=O)[C@@H](c1cccc(Br)c1)[C@@H]1CCCCN1` displayed an IC50 of 4.2 nM.

`COC(=O)[C@@H](c1ccccc1Cl)[C@@H]1CCCCN1` gave a concentration for half-maximal inhibition (IC50) of 1950 nM.

With `COC(=O)[C@@H](c1cccc(N)c1)[C@@H]1CCCCN1`, the IC50 was 265 nM.

Molecule `COC(=O)C(c1cccc(Cl)c1)C1CCCCN1` (single isomer, unassigned) registered a half-maximal inhibitory concentration (IC50) of 378 nM.

The molecule `COC(=O)[C@@H](c1ccc(F)cc1)[C@@H]1CCCCN1` came in with an IC50 of 35 nM.

For `COC(=O)C(c1ccccc1Cl)C1CCCCN1` (single isomer, unassigned), the IC50 amounted to 52500 nM.

As for `COC(=O)[C@@H](c1ccc(OC)c(OC)c1)[C@@H]1CCCCN1`, the half-maximal inhibitory concentration (IC50) amounted to 810 nM.

`COC(=O)[C@@H](c1ccc(C)cc1)[C@@H]1CCCCN1` came in with an IC50 of 33 nM.

Turning to `COC(=O)C(c1ccccc1Br)C1CCCCN1` (single isomer, unassigned), the half-inhibitory concentration (IC50) is 38100 nM.

With `COC(=O)[C@@H](c1ccc(N)cc1)[C@@H]1CCCCN1`, the IC50 was determined as 34.6 nM.

A further test addresses Sodium-dependent dopamine transporter (Rattus norvegicus) (UniProt P23977).
Description: The compound Hill coefficient value determined for WIN-Binding
A word on the Hill coefficient: it is the slope factor of the fitted curve. For the molecule `COC(=O)[C@@H](c1cccc(C)c1)[C@@H]1CCCCN1`, the Hill coefficient was determined as 1.01.

Take `COC(=O)[C@@H](c1cccc(Cl)c1)[C@@H]1CCCCN1`: the Hill coefficient was found to be 0.95.

Turning to `COC(=O)[C@@H](c1ccc(Br)cc1)[C@@H]1CCCCN1`, the Hill coefficient came to 1.15.

`COC(=O)[C@@H](c1cccc(F)c1)[C@@H]1CCCCN1`: the Hill coefficient worked out at 0.85.

As to `COC(=O)C(c1ccccc1OC)C1CCCCN1` (single isomer, unassigned), the Hill coefficient stood at 0.87.

For `COC(=O)[C@@H](c1ccc(Cl)cc1)[C@@H]1CCCCN1`, the Hill coefficient came out at 1.17.

In turn, `COC(=O)[C@@H](c1ccccc1)[C@@H]1CCCCN1` had a Hill coefficient of 0.9.

In turn, `COC(=O)[C@@H](c1ccccc1Br)[C@@H]1CCCCN1` yielded a Hill coefficient of 0.93.

As to `COC(=O)[C@@H](c1cccc(O)c1)[C@@H]1CCCCN1`, the Hill coefficient is 1.09.

On to `COC(=O)[C@@H](c1ccc([N+](=O)[O-])cc1)[C@@H]1CCCCN1`, for which the Hill coefficient is 1.17.

`COC(=O)[C@@H](c1ccc(Cl)c(Cl)c1)[C@@H]1CCCCN1` had a Hill coefficient of 2.07.

Molecule `COC(=O)[C@@H](c1ccc(O)cc1)[C@@H]1CCCCN1` registered a Hill coefficient of 1.07.

The molecule `COC(=O)[C@@H](c1ccccc1F)[C@@H]1CCCCN1` yielded a Hill coefficient of 0.9.

For the molecule `COC(=O)[C@@H](c1ccc(C(C)(C)C)cc1)[C@@H]1CCCCN1`, the Hill coefficient stood at 1.12.

`COC(=O)[C@@H](c1ccccc1OC)[C@@H]1CCCCN1` gave a Hill coefficient of 0.94.

In turn, `COC(=O)[C@@H](c1ccc(I)cc1)[C@@H]1CCCCN1` gave a Hill coefficient of 1.1.

`COC(=O)C(c1ccc(C(C)(C)C)cc1)C1CCCCN1` (single isomer, unassigned) gave a Hill coefficient of 1.1.

As for `COC(=O)[C@@H](c1cccc(Br)c1)[C@@H]1CCCCN1`, the Hill coefficient is 1.14.

Turning to `COC(=O)[C@@H](c1ccccc1Cl)[C@@H]1CCCCN1`, the Hill coefficient was determined as 0.98.

The molecule `COC(=O)[C@@H](c1cccc(N)c1)[C@@H]1CCCCN1` showed a Hill coefficient of 1.06.

The molecule `COC(=O)C(c1cccc(Cl)c1)C1CCCCN1` (single isomer, unassigned) came in with a Hill coefficient of 1.03.

Consider `COC(=O)[C@@H](c1ccccc1O)[C@@H]1CCCCN1`, for which the Hill coefficient was 1.04.

In turn, `COC(=O)[C@@H](c1ccc(F)cc1)[C@@H]1CCCCN1` showed a Hill coefficient of 0.97.

In turn, `COC(=O)C(c1ccccc1Cl)C1CCCCN1` (single isomer, unassigned) returned a Hill coefficient of 0.92.

In the case of `COC(=O)[C@@H](c1ccc(OC)c(OC)c1)[C@@H]1CCCCN1`, the Hill coefficient was 1.12.

Turning to `COC(=O)[C@@H](c1ccc(C)cc1)[C@@H]1CCCCN1`, the Hill coefficient stood at 1.05.

As for `COC(=O)C(c1ccccc1Br)C1CCCCN1` (single isomer, unassigned), the Hill coefficient turned out to be 1.06.

Consider `COC(=O)[C@H]1[C@@H](OC(=O)c2ccccc2)C[C@@H]2CC[C@H]1N2C`, for which the Hill coefficient worked out at 1.03.

The molecule `COC(=O)[C@@H](c1ccc(N)cc1)[C@@H]1CCCCN1` yielded a Hill coefficient of 0.96.
